Test results reported in publication PMC6414696 (mBio, 2019).
In brackets after ≈: the same amount, converted by molar mass.

Legend:
A. baumannii ARC5955 = experiment: Neutropenic murine thigh infection model; format: in vivo; settings: thigh tissue, CD-1 mice, 24 h after initiation of therapy, 40 mg/kg SC/q24h; for Change in log10 CFU/g: 40 mg/kg
OXA 24/40 = settings: cited from earlier work
OXA-23 = settings: cited from earlier work
OXA-24/40 = settings: cited from earlier work
[1] = system: A. baumannii clinical isolates; experiment: Broth microdilution MIC susceptibility testing against carbapenems; format: cell-based, Acinetobacter baumannii
OXA-48 = settings: cited from earlier work
OXA-10 = OXA-10 from Pseudomonas aeruginosa; cited from earlier work
[2] = Acinetobacter baumannii, strain CCF 1MR
[3] = Acinetobacter baumannii, strain CCF 2MR
[4] = Acinetobacter baumannii, strain CCF 3MR
[5] = Acinetobacter baumannii, strain CCF 4MR
[6] = Acinetobacter baumannii, strain CCF 5MR
[7] = Acinetobacter baumannii, strain CCF 6MR
[8] = Acinetobacter baumannii, strain CCF 7MR
[9] = Acinetobacter baumannii, strain CCF 8MR
[10] = Acinetobacter baumannii, strain UH AB202
[11] = Acinetobacter baumannii, strain UH AB461
[12] = Acinetobacter baumannii, strain UH AB477
[13] = Acinetobacter baumannii, strain UH AB487
[14] = Acinetobacter baumannii, strain UH AB489
[15] = Acinetobacter baumannii, strain UH AB490
[16] = Acinetobacter baumannii, strain UH AB491
[17] = Acinetobacter baumannii, strain UH AB636
[18] = Acinetobacter baumannii, strain UH AB660
[19] = Acinetobacter baumannii, strain UH AB667
[20] = Acinetobacter baumannii, strain VA-432
[21] = Acinetobacter baumannii, strain VA-433
[22] = Acinetobacter baumannii, strain VA-434
[23] = Acinetobacter baumannii, strain VA-435
[24] = Acinetobacter baumannii, strain VA-436
[25] = Acinetobacter baumannii, strain VA-437
[26] = Acinetobacter baumannii, strain VA-438
[27] = Acinetobacter baumannii, strain VA-505

Compound: Colistin
- Log10 CFU/g (A. baumannii ARC5955): 5.3 log10 CFU/g
- Change in log10 CFU/g (A. baumannii ARC5955): −1.4 log10 CFU/g
- Change in log10 CFU/g (A. baumannii ARC5955; listed as colistin): −1.36 log10 CFU/g

Compound: CC1=C[C@@H](C(N)=O)N2C[C@@H]1N(OS(=O)(=O)O)C2=O [compound 3]
- IC50 (OXA 24/40): 0.36 µM

Compound: N#CC1CC[C@@H]2CN1C(=O)N2OS(=O)(=O)O (stereo partly shown) [WCK 4234]
- k2/Ki (OXA-23): 1.7 ± 0.2 × 10^4 M^−1 s^−1
- k2/Ki (OXA-24/40): 9.6 ± 1 × 10^3 M^−1 s^−1

Compound: C[C@@H](O)[C@H]1C(=O)N2C(C(=O)O)=C(SCCN=CN)C[C@H]12 [Imipenem]
- MIC [1, 2]: > 8 µg/mL
- MIC [1, 3]: > 8 µg/mL
- MIC [1, 4]: > 8 µg/mL
- MIC [1, 5]: > 8 µg/mL
- MIC [1, 6]: > 8 µg/mL
- MIC [1, 7]: > 8 µg/mL
- MIC [1, 8]: > 8 µg/mL
- MIC [1, 9]: > 8 µg/mL
- MIC [1, 10]: > 8 µg/mL
- MIC [1, 11]: > 8 µg/mL
- MIC [1, 12]: > 8 µg/mL
- MIC [1, 13]: > 8 µg/mL
- MIC [1, 14]: > 8 µg/mL
- MIC [1, 15]: > 8 µg/mL
- MIC [1, 16]: > 8 µg/mL
- MIC [1, 17]: > 8 µg/mL
- MIC [1, 18]: > 8 µg/mL
- MIC [1, 19]: > 8 µg/mL
- MIC [1, 20]: 32 µg/mL (≈ 107 µM)
- MIC [1, 21]: 16 µg/mL (≈ 53.4 µM)
- MIC [1, 22]: 64 µg/mL (≈ 214 µM)
- MIC [1, 23]: 32 µg/mL (≈ 107 µM)
- MIC [1, 24]: 64 µg/mL (≈ 214 µM)
- MIC [1, 25]: 32 µg/mL (≈ 107 µM)
- MIC [1, 26]: 16 µg/mL (≈ 53.4 µM)
- MIC [1, 27]: 32 µg/mL (≈ 107 µM)

Compound: NC(=O)[C@@H]1CC[C@@H]2CN1C(=O)N2OS(=O)(=O)O [Avibactam, avibactam]
- k2/Ki (OXA-48): 1.4 ± 0.1 × 10^3 M^−1 s^−1
- k2/Ki (OXA-10): 1.1 ± 0.1 × 10^1 M^−1 s^−1

Compound: C[C@@H](O)[C@H]1C(=O)N2C(C(=O)O)=C(S[C@@H]3CN[C@H](C(=O)N(C)C)C3)[C@H](C)[C@H]12 [Meropenem]
- isolates resistant (R ≥ 8 according to CLSI) ([1]; 72 WRAMC isolates (seventeen of 72)): 24%
- MIC50 ([1]; Acinetobacter baumannii): 1 µg/mL (≈ 2.61 µM)
- MIC90 ([1]; Acinetobacter baumannii): 32 µg/mL (≈ 83.4 µM)
- MIC ([1]; Acinetobacter baumannii, strain AB001): 1 µg/mL (≈ 2.61 µM)
- MIC ([1]; Acinetobacter baumannii, strain AB002): 2 µg/mL (≈ 5.22 µM)
- MIC ([1]; Acinetobacter baumannii, strain AB003): 2 µg/mL (≈ 5.22 µM)
- MIC ([1]; Acinetobacter baumannii, strain AB004): 2 µg/mL (≈ 5.22 µM)
- MIC ([1]; Acinetobacter baumannii, strain AB005): 1 µg/mL (≈ 2.61 µM)
- MIC ([1]; Acinetobacter baumannii, strain AB006): 4 µg/mL (≈ 10.4 µM)
- MIC ([1]; Acinetobacter baumannii, strain AB007): 0.5 µg/mL (≈ 1.3 µM)
- MIC ([1]; Acinetobacter baumannii, strain AB008): 1 µg/mL (≈ 2.61 µM)
- MIC ([1]; Acinetobacter baumannii, strain AB009): 1 µg/mL (≈ 2.61 µM)
- MIC ([1]; Acinetobacter baumannii, strain AB010): 1 µg/mL (≈ 2.61 µM)
- MIC ([1]; Acinetobacter baumannii, strain AB011): 1 µg/mL (≈ 2.61 µM)
- MIC ([1]; Acinetobacter baumannii, strain AB012): 1 µg/mL (≈ 2.61 µM)
- MIC ([1]; Acinetobacter baumannii, strain AB013): 1 µg/mL (≈ 2.61 µM)
- MIC ([1]; Acinetobacter baumannii, strain AB014): 1 µg/mL (≈ 2.61 µM)
- MIC ([1]; Acinetobacter baumannii, strain AB015): 2 µg/mL (≈ 5.22 µM)
- MIC ([1]; Acinetobacter baumannii, strain AB016): 0.5 µg/mL (≈ 1.3 µM)
- MIC ([1]; Acinetobacter baumannii, strain AB017): 0.5 µg/mL (≈ 1.3 µM)
- MIC ([1]; Acinetobacter baumannii, strain AB018): 0.5 µg/mL (≈ 1.3 µM)
- MIC ([1]; Acinetobacter baumannii, strain AB019): 0.25 µg/mL (≈ 0.652 µM)
- MIC ([1]; Acinetobacter baumannii, strain AB020): 0.5 µg/mL (≈ 1.3 µM)
- MIC ([1]; Acinetobacter baumannii, strain AB021): 0.5 µg/mL (≈ 1.3 µM)
- MIC ([1]; Acinetobacter baumannii, strain AB022): 0.5 µg/mL (≈ 1.3 µM)
- MIC ([1]; Acinetobacter baumannii, strain AB023): 2 µg/mL (≈ 5.22 µM)
- MIC ([1]; Acinetobacter baumannii, strain AB024): 0.5 µg/mL (≈ 1.3 µM)
- MIC ([1]; Acinetobacter baumannii, strain AB025): 0.5 µg/mL (≈ 1.3 µM)
- MIC ([1]; Acinetobacter baumannii, strain AB026): 1 µg/mL (≈ 2.61 µM)
- MIC ([1]; Acinetobacter baumannii, strain AB027): 0.5 µg/mL (≈ 1.3 µM)
- MIC ([1]; Acinetobacter baumannii, strain AB028): 0.5 µg/mL (≈ 1.3 µM)
- MIC ([1]; Acinetobacter baumannii, strain AB029): 0.5 µg/mL (≈ 1.3 µM)
- MIC ([1]; Acinetobacter baumannii, strain AB030): 1 µg/mL (≈ 2.61 µM)
- MIC ([1]; Acinetobacter baumannii, strain AB031): 1 µg/mL (≈ 2.61 µM)
- MIC ([1]; Acinetobacter baumannii, strain AB032): 0.5 µg/mL (≈ 1.3 µM)
- MIC ([1]; Acinetobacter baumannii, strain AB033): 1 µg/mL (≈ 2.61 µM)
- MIC ([1]; Acinetobacter baumannii, strain AB034): 1 µg/mL (≈ 2.61 µM)
- MIC ([1]; Acinetobacter baumannii, strain AB035): 0.25 µg/mL (≈ 0.652 µM)
- MIC ([1]; Acinetobacter baumannii, strain AB036): 0.5 µg/mL (≈ 1.3 µM)
- MIC ([1]; Acinetobacter baumannii, strain AB037): 0.25 µg/mL (≈ 0.652 µM)
- MIC ([1]; Acinetobacter baumannii, strain AB038): 1 µg/mL (≈ 2.61 µM)
- MIC ([1]; Acinetobacter baumannii, strain AB039): 1 µg/mL (≈ 2.61 µM)
- MIC ([1]; Acinetobacter baumannii, strain AB040): 0.5 µg/mL (≈ 1.3 µM)
- MIC ([1]; Acinetobacter baumannii, strain AB041): 0.5 µg/mL (≈ 1.3 µM)
- MIC ([1]; Acinetobacter baumannii, strain AB042): 4 µg/mL (≈ 10.4 µM)
- MIC ([1]; Acinetobacter baumannii, strain AB043): 16 µg/mL (≈ 41.7 µM)
- MIC ([1]; Acinetobacter baumannii, strain AB044): 8 µg/mL (≈ 20.9 µM)
- MIC ([1]; Acinetobacter baumannii, strain AB045): 8 µg/mL (≈ 20.9 µM)
- MIC ([1]; Acinetobacter baumannii, strain AB046): 16 µg/mL (≈ 41.7 µM)
- MIC ([1]; Acinetobacter baumannii, strain AB047): 8 µg/mL (≈ 20.9 µM)
- MIC ([1]; Acinetobacter baumannii, strain AB048): 16 µg/mL (≈ 41.7 µM)
- MIC ([1]; Acinetobacter baumannii, strain AB049): 32 µg/mL (≈ 83.4 µM)
- MIC ([1]; Acinetobacter baumannii, strain AB050): 16 µg/mL (≈ 41.7 µM)
- MIC ([1]; Acinetobacter baumannii, strain AB051): 1 µg/mL (≈ 2.61 µM)
- MIC ([1]; Acinetobacter baumannii, strain AB052): 2 µg/mL (≈ 5.22 µM)
- MIC ([1]; Acinetobacter baumannii, strain AB053): 2 µg/mL (≈ 5.22 µM)
- MIC ([1]; Acinetobacter baumannii, strain AB054): 32 µg/mL (≈ 83.4 µM)
- MIC ([1]; Acinetobacter baumannii, strain AB055): 8 µg/mL (≈ 20.9 µM)
- MIC ([1]; Acinetobacter baumannii, strain AB056): 16 µg/mL (≈ 41.7 µM)
- MIC ([1]; Acinetobacter baumannii, strain AB057): 32 µg/mL (≈ 83.4 µM)
- MIC ([1]; Acinetobacter baumannii, strain AB058): 2 µg/mL (≈ 5.22 µM)
- MIC ([1]; Acinetobacter baumannii, strain AB059): 32 µg/mL (≈ 83.4 µM)
- MIC ([1]; Acinetobacter baumannii, strain AB060): 32 µg/mL (≈ 83.4 µM)
- MIC ([1]; Acinetobacter baumannii, strain AB061): 32 µg/mL (≈ 83.4 µM)
- MIC ([1]; Acinetobacter baumannii, strain AB062): 64 µg/mL (≈ 167 µM)
- MIC ([1]; Acinetobacter baumannii, strain AB063): 0.5 µg/mL (≈ 1.3 µM)
- MIC ([1]; Acinetobacter baumannii, strain AB064): 0.25 µg/mL (≈ 0.652 µM)
- MIC ([1]; Acinetobacter baumannii, strain AB065): 32 µg/mL (≈ 83.4 µM)
- MIC ([1]; Acinetobacter baumannii, strain AB066): 0.25 µg/mL (≈ 0.652 µM)
- MIC ([1]; Acinetobacter baumannii, strain AB067): 0.25 µg/mL (≈ 0.652 µM)
- MIC ([1]; Acinetobacter baumannii, strain AB068): 1 µg/mL (≈ 2.61 µM)
- MIC ([1]; Acinetobacter baumannii, strain AB069): 1 µg/mL (≈ 2.61 µM)
- MIC ([1]; Acinetobacter baumannii, strain AB070): 2 µg/mL (≈ 5.22 µM)
- MIC ([1]; Acinetobacter baumannii, strain AB071): 0.5 µg/mL (≈ 1.3 µM)
- MIC ([1]; Acinetobacter baumannii, strain AB072): 0.25 µg/mL (≈ 0.652 µM)
- MIC [1, 2]: > 8 µg/mL
- MIC [1, 3]: > 8 µg/mL
- MIC [1, 4]: > 8 µg/mL
- MIC [1, 5]: > 8 µg/mL
- MIC [1, 6]: > 8 µg/mL
- MIC [1, 7]: > 8 µg/mL
- MIC [1, 8]: > 8 µg/mL
- MIC [1, 9]: > 8 µg/mL
- MIC [1, 10]: > 8 µg/mL
- MIC [1, 11]: > 8 µg/mL
- MIC [1, 12]: > 8 µg/mL
- MIC [1, 13]: > 8 µg/mL
- MIC [1, 14]: > 8 µg/mL
- MIC [1, 15]: > 8 µg/mL
- MIC [1, 16]: > 8 µg/mL
- MIC [1, 17]: > 8 µg/mL
- MIC [1, 18]: > 8 µg/mL
- MIC [1, 19]: > 8 µg/mL
- MIC [1, 20]: 64 µg/mL (≈ 167 µM)
- MIC [1, 21]: 32 µg/mL (≈ 83.4 µM)
- MIC [1, 22]: 64 µg/mL (≈ 167 µM)
- MIC [1, 23]: 64 µg/mL (≈ 167 µM)
- MIC [1, 24]: 64 µg/mL (≈ 167 µM)
- MIC [1, 25]: 32 µg/mL (≈ 83.4 µM)
- MIC [1, 26]: 32 µg/mL (≈ 83.4 µM)
- MIC [1, 27]: 32 µg/mL (≈ 83.4 µM)
